“And” between values parts separate entries of the source, which are not always exact repeats. Equal values may be shown once.
How the values were obtained:
[1] = Free fraction in HLM incubation, equilibrium dialysis; type: in vitro ADME, human; conditions: for fu_HLM: fraction unbound, measured or estimated by in silico models of Fuinc
[2] = Intrinsic permeability in Caco-2 cells with efflux inhibited; conditions: human, Caco-2
[3] = CLint in NADPH-supplemented human liver microsomes; conditions: human; for CLint scaled at 1 µM: pH 7.4, NADPH_HLM_scaled_CLint,u
Description: (§1) Calculation and scaling of CLint,u was done using the equation below and 45 mg of microsomal protein per gram of liver. HLMCLint,u=ln2/x1/t1/2(min)xmLincubation/mgmicrosomalproteinx45mgmicrosomalprotein/gliverx21gliver/kg/Fuinc

recombinant CYP3A4-POR = target: T1, recombinant CYP3A4-POR (Homo sapiens, UniProt P08684); test: Savolitinib incubation with recombinant CYP3A4-POR Supersomes; type: in vitro ADME; conditions: CYP3A4-POR 100 pmol/mL, 1 µM, 1 h (Fig. 2b)
T1 construct: purchased 456202
T1 sequence (P08684 whole entry): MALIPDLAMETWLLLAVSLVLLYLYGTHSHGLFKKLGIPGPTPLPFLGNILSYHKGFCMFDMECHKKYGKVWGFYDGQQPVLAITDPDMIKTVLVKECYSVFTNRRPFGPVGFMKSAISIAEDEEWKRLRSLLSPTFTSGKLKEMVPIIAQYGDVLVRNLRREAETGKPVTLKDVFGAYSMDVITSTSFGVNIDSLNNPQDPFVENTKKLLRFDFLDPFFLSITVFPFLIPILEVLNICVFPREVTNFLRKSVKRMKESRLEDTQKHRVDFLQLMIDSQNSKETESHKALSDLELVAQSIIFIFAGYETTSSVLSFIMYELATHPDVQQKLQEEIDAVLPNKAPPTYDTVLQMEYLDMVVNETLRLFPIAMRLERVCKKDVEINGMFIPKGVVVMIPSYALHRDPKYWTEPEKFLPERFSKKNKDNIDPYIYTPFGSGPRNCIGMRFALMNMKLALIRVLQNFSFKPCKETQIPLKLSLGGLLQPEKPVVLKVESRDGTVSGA
Description: For detailed comparisons between recombinant CYP1A2 and CYP3A4 (Fig. 2B, C), Supersomes were used (CYP1A2, catalogue number 456203, CYP3A4, catalogue number 456202). […] The concentration of savolitinib metabolites M2 and M4 formed were determined from standard curves obtained by spiking the appropriate concentrations of M2 and M4 into recombinant enzymes (in the absence of NADPH) and processing in the same way as the samples.

[4] = Free savolitinib in incubation with 150 mg/mL bovine serum albumin; type: in vitro ADME; conditions: BSA final 150 mg/mL
in vitro = conditions: human, hepatocytes; for hepatocyte CLint at 1 µM: both; for CLint scaled at 1 µM: HH_scaled_CLint,u
[5] = Free fraction in rat hepatocytes as surrogate for HH, equilibrium dialysis; type: in vitro ADME; conditions: rat hepatocytes (surrogate for human hepatocytes); printed as HH; rat hepatocytes used as surrogate
rat hepatocytes = test: as above; type: in vitro ADME; conditions: fraction unbound, measured or estimated by in silico models of Fuinc
CYP1A2-Cytb5R = target: T2, CYP1A2-Cytb5R (Homo sapiens, UniProt P05177); test: Turnover by non-canonical recombinant CYP1A2-Cytb5R; type: in vitro ADME; conditions: noncanonical CYP1A2-Cytb5R
T2 construct: purchased BioIVT (custom synthesis) CE00001 (CYP1A2), batch CPD034-1A2-30; host or cells: bactosomes
T2 sequence (P05177 1-516): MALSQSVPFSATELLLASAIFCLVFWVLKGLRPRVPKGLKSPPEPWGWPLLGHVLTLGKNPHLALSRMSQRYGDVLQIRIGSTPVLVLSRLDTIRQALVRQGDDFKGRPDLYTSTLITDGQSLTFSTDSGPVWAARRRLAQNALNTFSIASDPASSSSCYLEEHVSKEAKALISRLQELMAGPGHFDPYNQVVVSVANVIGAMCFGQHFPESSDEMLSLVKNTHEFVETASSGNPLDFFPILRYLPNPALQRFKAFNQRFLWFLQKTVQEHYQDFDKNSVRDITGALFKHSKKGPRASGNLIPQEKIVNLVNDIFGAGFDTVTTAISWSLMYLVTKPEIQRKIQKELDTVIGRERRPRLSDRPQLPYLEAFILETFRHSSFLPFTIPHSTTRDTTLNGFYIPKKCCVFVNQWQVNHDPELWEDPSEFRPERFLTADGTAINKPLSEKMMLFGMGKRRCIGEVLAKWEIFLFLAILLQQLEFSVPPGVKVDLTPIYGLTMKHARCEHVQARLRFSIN
From the text: As commercial recombinant human CYPs co-express the individual CYP and reductase with an option to include cytochrome b5. A custom synthesis co-expressing CYP3A4 or CYP1A2 and Cytb5R plus cytochrome b5 was, therefore, ordered from BioIVT and the bactosomes were compared with canonical CYP-POR enzymes plus cytochrome b5.

recombinant human CYP3A5 = recombinant human CYP3A5 (Homo sapiens, UniProt P20815); test: Recombinant CYP panel, savolitinib CLint; type: in vitro ADME
Chain of recombinant human CYP3A5 (P20815 whole entry): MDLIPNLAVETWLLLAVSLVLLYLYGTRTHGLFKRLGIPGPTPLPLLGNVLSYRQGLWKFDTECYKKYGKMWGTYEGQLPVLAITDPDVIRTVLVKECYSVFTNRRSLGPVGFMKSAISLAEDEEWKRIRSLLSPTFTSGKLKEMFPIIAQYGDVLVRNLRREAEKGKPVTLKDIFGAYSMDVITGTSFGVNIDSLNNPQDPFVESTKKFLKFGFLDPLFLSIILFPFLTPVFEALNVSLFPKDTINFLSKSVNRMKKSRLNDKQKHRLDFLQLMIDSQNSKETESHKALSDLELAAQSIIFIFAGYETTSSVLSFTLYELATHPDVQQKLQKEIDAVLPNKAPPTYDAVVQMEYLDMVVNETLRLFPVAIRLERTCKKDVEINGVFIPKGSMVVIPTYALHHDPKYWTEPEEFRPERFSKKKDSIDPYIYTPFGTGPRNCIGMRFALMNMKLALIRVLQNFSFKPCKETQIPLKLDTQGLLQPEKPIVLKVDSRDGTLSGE
Description: (§2) […]
(§3) The clearance of savolitinib was
(§4) The average intrinsic clearance was
(§5) concentrations (final 0.1 µM).

recombinant human CYP2D6 = recombinant human CYP2D6 (Homo sapiens, UniProt P10635); test: Recombinant CYP panel, savolitinib CLint; type: in vitro ADME
Chain of recombinant human CYP2D6 (P10635 whole entry): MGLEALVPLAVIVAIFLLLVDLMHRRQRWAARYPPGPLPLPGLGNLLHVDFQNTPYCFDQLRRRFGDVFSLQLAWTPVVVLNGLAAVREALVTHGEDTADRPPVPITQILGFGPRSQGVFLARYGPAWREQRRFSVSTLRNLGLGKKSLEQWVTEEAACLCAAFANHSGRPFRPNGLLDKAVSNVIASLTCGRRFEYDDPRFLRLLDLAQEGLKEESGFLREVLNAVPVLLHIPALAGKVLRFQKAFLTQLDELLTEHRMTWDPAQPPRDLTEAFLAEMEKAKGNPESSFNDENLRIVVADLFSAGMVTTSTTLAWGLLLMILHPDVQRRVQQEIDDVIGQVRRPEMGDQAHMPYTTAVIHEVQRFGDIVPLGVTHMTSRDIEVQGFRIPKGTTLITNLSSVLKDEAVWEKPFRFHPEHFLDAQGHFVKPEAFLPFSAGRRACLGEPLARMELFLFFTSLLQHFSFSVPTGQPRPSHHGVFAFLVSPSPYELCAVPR
Description: as §2, §3, §4, §5

recombinant human CYP1A2 = target: T3, recombinant human CYP1A2 (Homo sapiens, UniProt P05177); test: Recombinant CYP panel, savolitinib CLint; type: in vitro ADME
T3 sequence (P05177 1-516): T2 sequence (P05177 1-516)
Description: as §2, §3, §4, §5

recombinant human CYP2A6 = target: T4, recombinant human CYP2A6 (Homo sapiens, UniProt P11509); test: Recombinant CYP panel, savolitinib CLint; type: in vitro ADME
T4 sequence (P11509 1-494): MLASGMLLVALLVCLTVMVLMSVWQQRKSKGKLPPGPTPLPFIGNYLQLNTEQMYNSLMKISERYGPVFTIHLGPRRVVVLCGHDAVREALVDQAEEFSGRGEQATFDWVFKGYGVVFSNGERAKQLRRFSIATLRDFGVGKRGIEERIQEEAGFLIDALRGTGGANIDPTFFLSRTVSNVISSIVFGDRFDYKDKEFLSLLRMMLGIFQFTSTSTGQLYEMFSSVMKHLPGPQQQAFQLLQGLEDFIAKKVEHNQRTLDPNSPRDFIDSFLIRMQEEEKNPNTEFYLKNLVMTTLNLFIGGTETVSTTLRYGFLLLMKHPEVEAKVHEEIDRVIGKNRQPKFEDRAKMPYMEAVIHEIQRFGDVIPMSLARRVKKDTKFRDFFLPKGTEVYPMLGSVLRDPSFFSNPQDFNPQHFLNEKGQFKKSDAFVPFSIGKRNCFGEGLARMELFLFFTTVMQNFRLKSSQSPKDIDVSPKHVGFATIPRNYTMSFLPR
Description: as §2, §3, §4, §5

[6] = target: recombinant human CYP2C19 (Homo sapiens, UniProt P33261); test: Recombinant CYP panel, savolitinib CLint; type: in vitro ADME; conditions: CYP2C19, inter-system extrapolation factors
Chain of recombinant human CYP2C19 (P33261 whole entry): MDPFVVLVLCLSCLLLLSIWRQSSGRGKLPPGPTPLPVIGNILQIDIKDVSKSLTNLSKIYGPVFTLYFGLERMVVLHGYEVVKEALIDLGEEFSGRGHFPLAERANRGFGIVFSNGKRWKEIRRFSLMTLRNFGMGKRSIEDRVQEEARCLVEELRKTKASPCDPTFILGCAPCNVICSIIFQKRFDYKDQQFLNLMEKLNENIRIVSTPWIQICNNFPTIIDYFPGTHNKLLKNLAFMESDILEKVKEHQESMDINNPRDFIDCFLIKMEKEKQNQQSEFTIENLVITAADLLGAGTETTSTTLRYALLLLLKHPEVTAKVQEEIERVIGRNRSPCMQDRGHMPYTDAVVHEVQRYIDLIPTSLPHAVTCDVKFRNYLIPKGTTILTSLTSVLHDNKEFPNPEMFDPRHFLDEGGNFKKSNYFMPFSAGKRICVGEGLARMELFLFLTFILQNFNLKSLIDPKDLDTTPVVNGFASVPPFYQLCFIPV
Description: as §2, §3, §4, §5

recombinant human CYP3A4 = recombinant human CYP3A4 (Homo sapiens, UniProt P08684); test: Recombinant CYP panel, savolitinib CLint; type: in vitro ADME
Chain of recombinant human CYP3A4 (P08684 whole entry): as the sequence (P08684 whole entry) above
Description: as §2, §3, §4, §5

[7] = LogD pH 7.4, octanol/phosphate buffer; conditions: octanol/phosphate buffer, pH 7.4
[8] = CLint in NADH-supplemented human liver microsomes; conditions: human, pH 7.4
Description: as §1

[9] = healthy volunteers, cited from earlier work
[10] = cited from earlier work
[11] = Incubations in human liver S9 + NADPH (same donor pool as HLM); type: in vitro ADME; conditions: S9 + NADPH, savolitinib 1 µM, 1 h (Fig. 6aii)
human hepatocytes (HH) [12] = test: Savolitinib metabolite (M2, M4) formation in human hepatocytes, with and without CYP inhibitors; type: in vitro ADME; conditions: savolitinib 5 µM, 1 h, only peak above this level
human hepatocytes (HH) [13] = test: as above; type: in vitro ADME; conditions: savolitinib 1 µM, intact HH
Description: […]120millioncells/[…] […] Authentic standards (M2 and M4) were spiked into hepatocytes (at 1 million cells/mL) and used to construct standard curves. Control marker reactions (final 1 μM for each compound) specific for CYP1A2 (phenacetin to form paracetamol), CYP2C19 (S-mephenytoin to form 4-OH mephenytoin) and CYP2D6 (dextromethorphan to form dextrorphan) were incubated in the presence and absence of the specific inhibitors to confirm the expected enzyme inhibition. […] After a pre-incubation at 37 °C for 5 min, the reaction was started by adding the test compound. […] After centrifugation at 3000 × g for 10 min, 200 μL of the supernatant was mixed with 400 μL of water before analysis for metabolites.

[14] = Metabolism of savolitinib in lysed hepatocytes + NADPH; type: in vitro ADME, human; conditions: savolitinib 1 µM, HH lysate + NADPH
Description: HH in Leibovitz buffer were centrifuged at 11,250 × g for 5 min to pellet the cells. Taking care not to disturb the pellet, all the media was removed using a pipette. Ice-cold water was added and the mixture vortex-mixed to resuspend the cells and stored at −80 °C for 5 min followed by sonication for 10 min to lyse the cells. The resuspended lysate final volume was equivalent to a final cell concentration of 1 million cells/mL (the same concentration used for intact cells experiments) in […] phosphate buffer pH 7.4 and NADPH (final 1 mM). After pre-incubating for 5 min at 37 °C, the reaction (metabolism of savolitinib) in the lysate was initiated by adding savolitinib (final 1 µM). […] Authentic standards (M2 and M4) were spiked into hepatocyte lysate and used to construct standard curves. The acetonitrile/hepatocyte lysate mixtures were centrifuged at 3000 × g for 10 min and 50 µl of the supernatant was mixed with 300 µl of water and 3 µL was injected into the mass spectrometer for analysis by multiple reaction monitoring.

[15] = Incubations in HLM + NADPH from the same donor pool as S9; type: in vitro ADME, human; conditions: HLM (same donors as S9) + NADPH, savolitinib 1 µM, 1 h (Fig. 6aii)
From the text: Liver S9 (lot 1810001, pool of 50, Xenotech) and HLM (pool of 50, lot 1810003, Xenotech) from the same pool of donors were purchased from Xenotech.

[16] = Savolitinib metabolite (M2, M4) formation in NADPH-HLM (with BSA or cytosol where stated); type: in vitro ADME, human; parameters: [M4] / M2 average / M4 average: unit not given here; conditions: for M2 average: average of duplicate (Suppl. Fig. 1); for [M2]: savolitinib 1 µM
physchem = conditions: pH 7.4

C[C@@H](c1ccc2nccn2c1)n1nnc2ncc(-c3cnn(C)c3)nc21 [Savolitinib]
fu_HLM [1]: 0.935 | fraction unbound at 4 h, 1 µM ([1]; human, human liver microsomes, pH 7.4): 0.935 | Papp at 2 h, 10 µM [2]: 53.7 ×10⁻⁶ cm/s | microsomal CLint at 1 µM ([3]; human liver microsomes + NADPH, pH 7.4): 9.8 µL/min/mg | CLint scaled at 1 µM ([3]; human liver microsomes, Fig. 4a,d): 9.9 mL/min/kg | Percentage savolitinib remaining (recombinant CYP3A4-POR): 1.366% and 5.612% and 4.281% | free savolitinib [4]: 17% | hepatocyte CLint at 1 µM (in vitro): 1 µL/min/1e6 cells | CLint scaled at 1 µM (in vitro): 2.98 mL/min/kg | fraction unbound at 4 h, 1 µM [5]: 0.847 | fu_ratHH (rat hepatocytes): 0.847 | turnover (metabolite formation or disappearance of parent) (CYP1A2-Cytb5R): no detectable turnover | % contribution (recombinant human CYP3A5; CYP3A5, inter-system extrapolation factors): 12% | CLint (recombinant human CYP3A5; CYP3A5, only two experiments measurable): 0.0939 µL/min/pmol CYP | CLint (recombinant human CYP2D6; CYP2D6, average of three): 0.309 ± 0.0010 µL/min/pmol CYP | % contribution (recombinant human CYP2D6; CYP2D6, inter-system extrapolation factors): 1.8% | % contribution (recombinant human CYP1A2; CYP1A2, inter-system extrapolation factors): 1.6% | CLint (recombinant human CYP1A2; CYP1A2, only two experiments measurable): 0.0386 µL/min/pmol CYP | % contribution (recombinant human CYP2A6; CYP2A6, inter-system extrapolation factors): 0.2% | CLint (recombinant human CYP2A6; CYP2A6, only one experiment measurable): 0.0148 µL/min/pmol CYP | % contribution [6]: 1.9% | CLint (recombinant human CYP3A4; CYP3A4, average of three): 0.489 ± 0.0278 µL/min/pmol CYP | % contribution (recombinant human CYP3A4; CYP3A4, inter-system extrapolation factors): 83% | logD [7]: 1.81 | microsomal CLint at 1 µM ([8]; human liver microsomes + NADH): 1.6 µL/min/mg | CLint scaled at 1 µM ([8]; human liver microsomes): 1.62 mL/min/kg | oxidation by aldehyde oxidase, share of the dose [9]: 19 % of the dose | oxidation/hydrolysis on the imidazopyridine moiety, share of the dose [9]: 16 % of the dose | free in normal plasma [10]: 29%

C[C@@H](c1ccc2nccn2c1)n1nnc2ncc(-c3cn[nH]c3)nc21 [Compound M2]
[M2] [11]: 6.15 nM and 6.3 nM and 4.1 nM | metabolite peak by UV detection (human hepatocytes (HH) [12]): greater than 1% | [M2] (human hepatocytes (HH) [13]; 5 min (Fig. 2a, 6cii)): 1.4 nM and 2.2 nM and 2.25 nM | [M2] (human hepatocytes (HH) [13]; 10 min (Fig. 2a, 6cii)): 2.85 nM and 3.9 nM and 4.1 nM | [M2] (human hepatocytes (HH) [13]; 20 min (Fig. 2a, 6cii)): 6.15 nM and 6.85 nM and 7.4 nM | [M2] (human hepatocytes (HH) [13]; 40 min (Fig. 2a, 6cii)): 12.1 nM and 12.5 nM and 13.35 nM | [M2] (human hepatocytes (HH) [13]; 60 min (Fig. 2a, 6cii)): 15.75 nM and 16.75 nM and 16.5 nM | [M2] ([14]; 0 min (Fig. 6cii)): 0.25 nM and 0.2 nM | [M2] ([14]; 5 min (Fig. 6cii)): 1.7 nM and 2.55 nM and 1.8 nM | [M2] ([14]; 10 min (Fig. 6cii)): 3.5 nM and 5.15 nM and 3.8 nM | [M2] ([14]; 20 min (Fig. 6cii)): 6.7 nM and 10.4 nM and 7.3 nM | [M2] ([14]; 40 min (Fig. 6cii)): 11.35 nM and 17.1 nM and 12.4 nM | [M2] ([14]; 60 min (Fig. 6cii)): 15.15 nM and 22.05 nM and 17 nM | [M2] [15]: 12.05 nM and 12.7 nM and 9.9 nM | metabolite, share of the dose ([9]; N-demethylation to M2): 60 % of the dose | M2 average ([16]; 60min, cytosol 0 mg/mL): 12.95 and 12.75 and 12.25 | M2 average ([16]; 60min, cytosol 4 mg/mL): 10.25 and 10.45 and 11.2 | M2 average ([16]; 60min, cytosol 10 mg/mL): 7.45 and 7.9 and 8.9 | [M2] ([16]; 1 h (Fig. 2e)): 9.4 nM and 16.7 nM and 13.4 nM | [M2] ([16]; 60min, cytosol 0 mg/mL, single measurements (Suppl. Fig. 1)): 13.1 and 12.8 and 12.6 and 12.9 and 11.7 | [M2] ([16]; 60min, cytosol 4 mg/mL, single measurements (Suppl. Fig. 1)): 10.4 and 10.1 and 10.6 and 10.3 and 10.9 and 11.5 | [M2] ([16]; 60min, cytosol 10 mg/mL, single measurements (Suppl. Fig. 1)): 7.5 and 7.4 and 8 and 7.8 and 8.5 and 9.3

CC(=O)CC(c1ccccc1)c1c(O)c2ccccc2oc1=O (centres unmarked) [Warfarin]
fu_HLM [1]: 1 | Papp at 2 h, 10 µM [2]: 60.7 ×10⁻⁶ cm/s | CLint scaled at 1 µM ([3]; microsomes): 4.16 mL/min/kg | hepatocyte CLint at 1 µM (in vitro): 2.69 µL/min/1e6 cells | CLint scaled at 1 µM (in vitro): 8.57 mL/min/kg | fu_ratHH (rat hepatocytes): 0.791 | logD (physchem): 0.902 | CLint scaled at 1 µM ([8]; microsomes): 2.83 mL/min/kg
